Measured values published in patent publication US20220408724A1, “METHOD FOR CONTROLLING METABOLISM OF BRANCHED FATTY ACID” (KAO CORPORATION, priority 2019, published 2022).
Where “and” joins values, the source holds several entries; their conditions need not be identical. Equal entries are not always repeated.

Tests used:
Format in all cases: cell-based
Moraxella osloensis = assay: Examination example: suppression of metabolite 4-methyl-3-hexenoic acid, components (a) and (b)/(b′); conditions: single agent 100 μg/fabric g
Protocol: (§1) After culture on fabric prepared in the same manner as in the above (1), 3 ml of methanol was added, and extraction was carried out under ultrasonic irradiation for 30 minutes (20° C.). The extraction liquid was mixed with (a 1000 ppm methanol solution of) an ADAM reagent of Funakoshi Co., Ltd. at 1:1 (volume ratio) and left overnight under room temperature and dark place conditions. After that, 4-methyl-3-hexenoic acid as a metabolite from 14-methylhexadecanoic acid was quantified by HPLC. The quantification conditions are as follows.
Eluent: acetonitrile 61% (v/v), water 39% (v/v) Column temperature: 40° C. Sample injection volume: 10 μL Flow rate: 1.0 mL/min
(§2) The production amount of 4-methyl-3-hexenoic acid after culture on the fabric to which the metabolism controlling agent was added was quantified, and the ratio of the production amount to that of 4-methyl-3-hexenoic acid in the case of adding no metabolism controlling agent (control) was calculated as a metabolite suppression rate (%). The higher a numerical value thereof is, the more the metabolism is suppressed. Note that the metabolite suppression rate was determined by the following formula. In references 1-1, 2-1, 3-1 and 4-1, which are controls, the metabolite suppression rate is 0%.
Metabolite suppression rate(%)=100×[(D−C)/D] • C: production amount of metabolite of reference or examination example (μg/fabric g) • D: production amount of metabolite of control (μg/fabric g)

[1] = system: Escherichia coli (NBRC3972); assay: Suppression of metabolite 4-methylhexanoic acid from 14-methylhexadecanoic acid
Protocol: as §1
as §2, with “which each” for “which the”, “following formula:” for “following formula. In references 1-1, 2-1, 3-1 and 4-1, which are controls, the metabolite suppression rate is 0%.”
(§3) Metabolite suppression rate(%)=100×[(D−C)/D] • C: production amount of metabolite of example or comparative example (μg/fabric g) • D: production amount of metabolite of control (μg/fabric g)
The metabolism of 14-methylhexadecanoic acid by bacteria of the genus Escherichia (Escherichia coli) was tested in the same manner as in example 1.
In this example, Escherichia coli (NBRC3972) was used as a microorganism.
Further, in this example, a bacterial suspension of 10^6 (CFU/ml) prepared by using an NB liquid medium diluted to 1/10 with ion exchange water was used as a bacterial suspension.
Further, in this example, 4-methylhexanoic acid was quantified as a metabolite from 14-methylhexadecanoic acid, and the metabolite suppression rate was determined in the same manner as in example 1.
(§4) Note that, in this example, C12OH (1-dodecanol) was used as the metabolism controlling agent.

Staphylococcus aureus = assay: Measurement of viable bacterial count on fabric
Protocol: After culture on fabric prepared in the same manner as in the above (1), 9 mL of an LP diluent (manufactured by NIHON PHARMACEUTICAL CO., LTD.) was added, and the extraction of the bacteria was carried out under ultrasound for 10 minutes. The extraction liquid was poured and mixed to an SCD-LP agar medium (NIHON PHARMACEUTICAL CO., LTD.), and culture was thereafter carried out at 37° C.; for a day. The number of colonies obtained on each piece of the fabric was counted, and a common logarithm value thereof was measured as the viable bacterial count. […] In addition, the […], the more the viable bacterial count of the microorganism is maintained.
The metabolism of 14-methylhexadecanoic acid by bacteria of the genus Staphylococcus (Staphylococcus aureus) was tested in the same manner as in example 1.
In this example, Staphylococcus aureus (strain isolated from clothing) was used as a microorganism.
Further, in this example, a bacterial suspension of 10^7 (CFU/ml) prepared by using an NB liquid medium diluted to 1/10 with ion exchange water was used as a bacterial suspension.
as §4

Micrococcus aloeverae [2] = assay: Suppression of metabolite 2-methylbutanoic acid from 14-methylhexadecanoic acid
Protocol: as §1
as §2, with “which each” for “which the”, “following formula:” for “following formula. In references 1-1, 2-1, 3-1 and 4-1, which are controls, the metabolite suppression rate is 0%.”
as §3
(§5) The metabolism of 14-methylhexadecanoic acid by bacteria of the genus Micrococcus was tested in the same manner as in example 1.
(§6) In this example, Micrococcus aloeverae (strain isolated from clothing) was used as a microorganism.
(§7) Further, in this example, a bacterial suspension of 10^7 (CFU/ml) prepared by using an SCD liquid medium (NIHON PHARMACEUTICAL CO., LTD.) diluted to 1/10 with ion exchange water was used as a bacterial suspension.
Further, in this example, 2-methylbutanoic acid was quantified as a metabolite from 14-methylhexadecanoic acid, and the metabolite suppression rate was determined in the same manner as in example 1.
as §4

Micrococcus aloeverae [3] = assay: Suppression of metabolism of 14-methylhexadecanoic acid on cotton fabric
Protocol: A methanol solution in which 14-methylhexadecanoic acid (SIGMA-ALDRICH) was dissolved was added dropwise to 3 cm×3 cm pieces of sterilized plain-weave cotton fabric to make it adhered to the fabric. The adhesion amount of 14-methylhexadecanoic acid was set to 10 μg per piece of the plain-weave cotton fabric (100 μg/fabric g).
Further, a methanol solution in which each metabolism controlling agent was dissolved was prepared and added dropwise to the fabric to which 14-methylhexadecanoic acid adhered, and it was thereafter dried for an hour. This fabric was placed in a sterilized screw tube bottle No. 3 (Maruemu Corporation) and 100 μl of the bacterial suspension was inoculated thereto, and culture was carried out under 37° C.; conditions for 21 hours.
3 ml of methanol was added to the screw tube bottle after culture, and extraction was carried out under ultrasonic irradiation for 30 minutes (20° C.). The extraction liquid was mixed with a (trimethylsilyl)diazomethane hexane solution (FUJIFILM Wako Pure Chemical Corporation) at 9:1 (volume ratio) and left overnight under room temperature and dark place conditions. After that, 14-methylhexadecanoic acid remaining on the fabric was quantified by GC. The quantification conditions for GC are as follows. • GC: Agilent 7890A • GC column: Agilent DB-1 30 m×250 μm×0.25 μm • Temperature rise condition: 50° C. (held for 3 minutes)-(10° C./min)-300° C. (held for 5 minutes) • Sample injection volume: 1 μl • Split ratio: 1:12 • Detector: FID
as §2, with “residual” for “production”, “14-methylhexadecanoic” for “4-methyl-3-hexenoic”, “metabolism” for “metabolite”, “formula:” for “formula. In references 1-1, 2-1, 3-1 and 4-1, which are controls, the metabolite suppression rate is 0%.”
Metabolism suppression rate(%)=[1−(100−A)/(100−B)]×100 • A: residual amount of 14-methylhexadecanoic acid of example or comparative example (μg/fabric g) • B: residual amount of 14-methylhexadecanoic acid of control (μg/fabric g)
as §5, §6, §7, §4

With `CCCCCCCCCCCCO` [Example C12OH, 1-dodecanol] the “Product of metabolism of branched fatty acid: Metabolite suppression rate (%)” value (Moraxella osloensis) was 20%, the “Product of metabolism of branched fatty acid: Production amount (μg/fabric g)” value (Moraxella osloensis) was 3.5 μg/fabric g and the “Metabolite suppression rate (%)” value ([1]; agent 500 μg/fabric g) was 74% and 41%. The “Metabolite suppression rate (%)” value ([1]; agent 1000 μg/fabric g) was 93% and 65%, the “Metabolite suppression rate (%)” value ([1]; agent 2000 μg/fabric g) was 77% and the “Metabolite suppression rate (%)” value ([1]; agent 3000 μg/fabric g) was 80%. For the same compound, the “Bacterial count (Log (cfu/fabric cm^2))” value (Staphylococcus aureus; agent 100 μg/fabric g) was 6.4 Log (cfu/fabric cm^2), the “Bacterial count (Log (cfu/fabric cm^2))” value (Staphylococcus aureus; agent 500 μg/fabric g) was 6.2 Log (cfu/fabric cm^2) and the “Metabolite suppression rate (%)” value (Micrococcus aloeverae [2]; agent 100 μg/fabric g) was 21%. The “Metabolite suppression rate (%)” value (Micrococcus aloeverae [2]; agent 250 μg/fabric g) was 79% and 74%, the “Metabolite suppression rate (%)” value (Micrococcus aloeverae [2]; agent 500 μg/fabric g) was 75% and the “Metabolite suppression rate (%)” value (Micrococcus aloeverae [2]; agent 1000 μg/fabric g) was 75%. The “Metabolism suppression rate (%)” value (Micrococcus aloeverae [3]; agent 100 μg/fabric g) was 16.7%, the “Metabolism suppression rate (%)” value (Micrococcus aloeverae [3]; agent 250 μg/fabric g) was 73% and 55.0% and the “Metabolism suppression rate (%)” value (Micrococcus aloeverae [3]; agent 500 μg/fabric g) was 85.8%. The “Metabolism suppression rate (%)” value (Micrococcus aloeverae [3]; agent 1000 μg/fabric g) was 86.9%.
